Consider one molecule from PubChem BioAssay AID624446 (The Scripps Research Institute Molecular Screening Center, 2012).

Calls of active or inactive are those of the source.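 The calls were made as follows: active = compounds blocking protein phosphatase 1 with half-maximal inhibitory concentration IC50 under 50 µM; inactive = IC50 of 50 µM or more.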

The target in the test is Serine/threonine-protein phosphatase PP1-alpha catalytic subunit (Homo sapiens) (UniProt P62136). The experiment in a line: PP1alpha inhibitor potency, phosphohistone substrate, late-stage follow-up, selectivity assay for PP5 inhibitor project, biochemical, 32P-phosphohistone, radiolabel, dose response, round 5 (AID 624446). As to conditions: purified PP1alpha, 32P-phosphohistone dephosphorylation, scintillation.
Sequence of Serine/threonine-protein phosphatase PP1-alpha catalytic subunit (Homo sapiens) (P62136 whole entry, looked up): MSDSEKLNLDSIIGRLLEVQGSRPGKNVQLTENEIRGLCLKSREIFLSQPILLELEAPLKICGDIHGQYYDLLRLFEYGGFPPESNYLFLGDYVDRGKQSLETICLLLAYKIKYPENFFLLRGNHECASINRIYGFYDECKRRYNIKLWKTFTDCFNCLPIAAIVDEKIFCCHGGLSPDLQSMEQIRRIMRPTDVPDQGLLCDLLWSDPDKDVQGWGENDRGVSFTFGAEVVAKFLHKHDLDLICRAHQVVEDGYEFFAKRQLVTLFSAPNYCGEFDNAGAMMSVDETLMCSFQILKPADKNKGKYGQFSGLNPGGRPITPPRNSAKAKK

In the case of `CC(C)Oc1ccccc1-c1n[nH]nc1C(=O)O`, the IC50 entry was “inactive”.
